A short description of series [1]: Dynamic Vapour Sorption (DVS) hygroscopicity. Type of series: physicochemical. The method, then:
Dynamic Vapour Sorption (DVS): The Dynamic Vapour Sorption studies are performed using a Surface Measurement Systems Ltd. DVS-1 No Video, equipment #2126. The sample is loaded into a balance pan, typically 20-30 mg, and equilibrated at 0% RH. After the material was dried, the RH is increased with 10% per step for 1 hour per increment, ending at 95% RH. After completion of the sorption cycle, the sample was dried using the same method. The software used for data collection is DVSWin v3.01 No Video. Data analysis is performed using DVS Standard Analysis Suite v6.3.0 (Standard).

A short description of series [2]: solubility, general statements. Type of series: physicochemical. The settings on record: general statement, solvent not given. On the procedure:
Solubility of free base in various solvents is evaluated, and based on the results of the solubility range, suitable solvents are selected for the co-crystal screen. Co-crystal formation is based on hydrogen bonding and stacking of the molecules, meaning the co-former selection is based on active groups. Grinding is a method to form co-crystals, however the free base itself is an oil/sticky solid and therefore not suitable for this method. The free base and counter ion are added to a solution in a certain ratio to give the chance to form a co-crystal, similar to salt formation. We found the best method is to add a saturated solution of the co-former to that of the free base to find an optimal ratio for co-crystal formation.

Series [3] addresses H1 histaminergic receptors (Homo sapiens, UniProt P35367). The settings on record: cited from earlier work.
The target in the next series is T1, 5-HT2C receptors (Homo sapiens, UniProt P28335).
T1 sequence (P28335 33-458): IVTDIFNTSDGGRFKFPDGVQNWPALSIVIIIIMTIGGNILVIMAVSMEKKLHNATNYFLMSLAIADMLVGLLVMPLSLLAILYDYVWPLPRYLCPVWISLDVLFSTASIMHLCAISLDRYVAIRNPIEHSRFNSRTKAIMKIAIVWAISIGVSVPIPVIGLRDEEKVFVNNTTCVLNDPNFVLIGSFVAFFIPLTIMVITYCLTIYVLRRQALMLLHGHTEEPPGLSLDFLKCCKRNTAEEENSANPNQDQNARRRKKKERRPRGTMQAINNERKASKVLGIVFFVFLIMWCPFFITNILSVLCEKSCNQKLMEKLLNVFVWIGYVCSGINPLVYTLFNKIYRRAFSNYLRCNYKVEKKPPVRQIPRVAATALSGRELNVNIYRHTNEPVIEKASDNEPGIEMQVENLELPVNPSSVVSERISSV
The settings on record: cited from earlier work.

The test system of a further series is muscarinic receptors. The following applies: cited from earlier work.
The conditions of series [4]: free base form; in water and in many organic solvents; cited from earlier work.
The conditions of series [5]: hydrochloride salt of U.S. Pat. No. 7,183,282; cited from earlier work.
The conditions of series [6]: hydrochloride salt of U.S. Pat. No. 7,183,282; cited from earlier work. This is another data set of the same source.

Structures are written as SMILES. Read-outs that look alike come from different tables or passages of the source.

H1 histaminergic receptors, sequence (P35367 whole entry): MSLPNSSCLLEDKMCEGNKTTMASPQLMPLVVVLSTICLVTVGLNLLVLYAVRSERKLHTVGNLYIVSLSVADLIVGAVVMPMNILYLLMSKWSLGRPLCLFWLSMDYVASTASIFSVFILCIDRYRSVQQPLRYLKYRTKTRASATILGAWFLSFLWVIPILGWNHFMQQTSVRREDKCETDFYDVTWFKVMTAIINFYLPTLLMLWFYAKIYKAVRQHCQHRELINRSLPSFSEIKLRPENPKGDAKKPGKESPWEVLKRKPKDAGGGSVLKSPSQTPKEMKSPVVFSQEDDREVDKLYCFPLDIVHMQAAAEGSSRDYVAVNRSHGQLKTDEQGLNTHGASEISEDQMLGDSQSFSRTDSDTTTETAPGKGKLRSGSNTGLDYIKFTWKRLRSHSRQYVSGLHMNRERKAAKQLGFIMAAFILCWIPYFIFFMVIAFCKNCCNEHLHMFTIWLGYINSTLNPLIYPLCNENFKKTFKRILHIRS

In the case of `CN1CCN2c3c(cccc31)C1CN(CCCC(=O)c3ccc(F)cc3)CCC12.NC(=O)c1ccncc1` (stereo not shown), in series [1], the “Hygroscopicity (%)” value was 0.2% and the “hygroscopicity (in words)” value is “not hygroscopic”. The molecule further yielded a mass uptake in series [1] (at 95 RH %) of 0.2%.
In the case of `CN1CCN2c3c(cccc31)[C@@H]1CN(CCCC(=O)c3ccc(F)cc3)CC[C@@H]12` [ITI-007, 1-(4-fluoro-phenyl)-4-((6bR,10aS)-3-methyl-2,3,6b,9,10,10a-hexahydro-1H,7H-pyrido[3′,4′:4,5]pyrrolo[1,2,3-de]quinoxalin-8-yl)-butan-1-one], the solubility entry is reported as “poorly soluble” in series [2] and “poor solubility” in series [4]. Also, the binding entry (in series [3]; at 5-HT2C receptors; in the series on muscarinic receptors) was “negligible binding” each time.
`CN1CCN2c3c(cccc31)C1CN(CCCC(=O)c3ccc(F)cc3)CCC12.Cl` (stereo not shown) [hydrochloride salt form of ITI-007]: the hygroscopicity result in series [5] is “hygroscopic”. In addition, the stability result in series [6] is listed as “poor stability”.

The values are drawn from patent publication US11014925B2, “Co-crystals of 1-(4-fluoro-phenyl)-4-((6bR,1OaS)-3-methyl-2,3,6b,9,10,10a-hexahydro-1H,7H- pyrido[3′,4′:4,51_pyrrolo [1,2,3-delqcuinoxalin-8-yl)-butan-1-one with nicotinamide or isonicotinamide” (INTRA-CELLULAR THERAPIES, INC., priority 2016, dated 2021).
